Data taken from patent US20120316211A1, “Diagnostic Methods for Assessing Risk of Chagas Disease and Heart Failure” (The Board or Regents of the University of Texas System, priority 2011, published 2012).

How the values were obtained:
[1] = system: Trypanosoma cruzi; details: cited from earlier work
[2] = system: T. cruzi; test: 2D-GE plasma proteome profile of T. cruzi infected rats treated with PBN and/or BZ; type: in vivo, Sprague Dawley rats
Experimental: (§1) Animals and parasites. Sprague Dawley rats (4-5-weeks-old, Harlan Labs) were infected with T. cruzi (SylvioX10/4, 50,000 trypomastigotes/rat, intraperitoneal). Rats were given 1.3 mM PBN (beginning day 0, throughout the course of infection) and/or 0.7 mM BZ (beginning day 40 pi, for three weeks) in drinking water. The plasma samples were obtained at acute ([…] days post-infection (dpi)) and chronic (>150 dpi) stages of infection and disease development.
(§2) Rat plasma collection and removal of high-abundance proteins. Whole blood was collected in K3EDTA vacutainers and kept on ice for 30 min. The samples were centrifuged for 15 min at 3,000 g, and the lipid-containing upper layer was removed. The abundant proteins (e.g., albumin, α1-acid glycoprotein, α1-antitrypsin, α2-5 macroglobulin, apolipoproteins (ApoA-I, ApoA-II), fibrinogen, haptoglobin, immunoglobulins (IgA, IgG, and IgM), and transferrin) in plasma were removed using ProteomeLab IgY-12 LC 10 affinity spin columns (Beckman Coulter). The plasma samples depleted of abundant proteins were then concentrated by using Amicon® ultra centrifugal filters (3 kDa cut-off, from Millipore) and desalted by PD-10 desalting columns (GE Healthcare). Protein content was determined by using the Bradford assay (Bio-Rad).
(§3) Two-dimensional gel electrophoresis. The 11-cm immobilized pH gradient (IPG) strips (pH: 3-10 or 5-8, Bio-Rad) were rehydrated at 50 V for 12 h with 250-μl rehydration buffer (1 M thiourea, 8 M urea, 2% CHAPS, 1% dithiothreitol, and 0.2% ampholytes) containing 200-μg protein samples and 0.002% of bromophenol blue. Isoelectric focusing was performed at 500 V for 1 h, 1000 V for 1 h, 8000 V for 2 h, and then at 8000 V for a total of 50,000 Vh. The IPG strips were suspended in equilibration buffer (50 mM Tris-HCI, pH 6.8, 6 M urea, 20% glycerol) and sequentially incubated for 15 min each in presence of 2% DTT/2% SDS (reducing conditions) and 2.5% iodoacetamide/2% SDS (alkylating conditions). Equilibrated IPG strips were subjected to second-dimension electrophoresis by using 8-10% linear gradient precast Tris-HCI gels (BioRad) on a PROTEAN plus Dodeca Cell System at 75 V for 1 h and then at 120 V until the dye front reached the bottom of the gel. Gels were fixed in 10% methanol/7% acetic acid, stained with SYPRO Ruby (BioRad), destained in 10% ethanol/7% acetic acid, and imaged by using a high-resolution ProXPRESS Proteomic Imaging System (Perkin Elmer).
(§4) Image analysis. In total, 28 SYPRO Ruby-stained 2D gels (n=4/group) were digitalized on a ProXPRESS Proteomic Imaging System (Perkin Elmer), and the images were analyzed on Progenesis SameSpots™ software 2.0 (NonLinear Dynamics). Normalized spot volumes, i.e., the volume of each spot over the volume of all spots in the gel, were used for comparison of the different groups, and candidates were identified as protein spots that changed at least 2-fold versus their specific control. Statistical significance was assessed by a two-tailed Student's t-test and analysis of variance test (ANOVA), and p values of <0.05 were considered significant for comparison between control and experimental data.
(§5) Sprague Dawley rats were infected with T. cruzi and treated with phenyl-α-tert-butyl nitrone (PBN, antioxidant) with or without benznidazole (BZ, anti-parasite drug). Plasma samples were collected at day 25 (acute stage) and 150 (chronic stage) post-infection, and depleted of high-abundance proteins to enrich detection of low-abundance proteins by 2D-gel electrophoresis. Gel images of plasma samples from normal rats (RN), rats that were acutely infected (RA) and treated with PBN (RAP), and chronically infected rats (RC) that were treated with PBN (RCP), BZ (RCB), or PBN and BZ (RCPB) were analyzed on Progenesis SameSpotst™ software and normalized spot volumes were used for comparison of different groups.

[3] = as above; type: in vivo, Sprague Dawley rats; details: chronically infected rats (RCP, RCB, RCPB), depleted plasma
Experimental: as §1, §2, §3, §4, §5

[4] = system: T. cruzi; test: Detection of carbonyl proteins (DNPH, anti-DNP Western blotting) in plasma of T. cruzi infected rats; type: in vivo, Sprague Dawley rats
Experimental: as §1
Detection of carbonyl proteins. IPG strips were loaded with protein samples and subjected to 1st-dimension isoelectric focusing, as above. IPG strips were then incubated with 1 ml of 3% SDS and 5 mM 2,4-dinitrophenylhydrazine (DNPH)/10% trifluoroacetic acid for 25 min. […] Membranes were hybridized with rabbit anti-DNP antibody (1:300 dilution, Invitrogen) and HRP-conjugated goat anti-rabbit secondary antibody (1:4000 dilution, Sigma), and signal detected by using an Amersham™ ECL Plus system, according to the manufacturer's protocol (Levine et al., (1990) Methods Enzymol, 186, 464-78; Wen and Garg, (2004) Free Radic Biol Med, 37, 2072-81). Images were visualized, digitized, and signal was quantified by densitometry by using a FluorChem 8800 image analyzer (Alpha Innotech). […]

[5] = chronically infected rats (RCP, RCB, RCPB), depleted plasma

Structure (SMILES): O=C(Cn1ccnc1[N+](=O)[O-])NCc1ccccc1 [BZ, Benznidazole]
- controlling parasitemia ([1]; acutely infected individuals): effective
- efficacy in arresting or reversing disease progression ([1]; chronically infected patients): not clearly established
- number of proteins stimulated in a treatment-specific manner ([2]; chronic chagasic plasma): 2
- number of proteins with altered expression ([2]; chronic chagasic plasma, 22 of the 61 shared with BZ-treated rats): 22
- decline in the plasma proteome profile ([2]; chronically infected rats): 30.1%
- Average Normalized Density × 100,000, spot 12, 180 KRT1 [2, 5]: 9.47
- Average Normalized Density × 100,000, spot 34 TTC37 [2, 5]: 0.37
- Average Normalized Density × 100,000, spot 37, 593 SRPRB [2, 5]: 3.21
- Average Normalized Density × 100,000, spot 49, 673 IGH-1 [2, 5]: 3.98
- Average Normalized Density × 100,000, spot 52, 54, 302 TF [2, 5]: 0.60
- Average Normalized Density × 100,000, spot 53, 225 SroTP [2, 5]: 1.72
- Average Normalized Density × 100,000, spot 72 IDH3A [2, 5]: 83.09
- Average Normalized Density × 100,000, spot 73, 705, 787 ALB [2, 5]: 216.9
- Average Normalized Density × 100,000, spot 77 MUG1 [2, 5]: 107.7
- Average Normalized Density × 100,000, spot 88 IGHG- [2, 5]: 4.75
- Average Normalized Density × 100,000, spot 94 FGB [2, 5]: 0.55
- Average Normalized Density × 100,000, spot 115, 123 SERPINAL1 [2, 5]: 8.36
- Average Normalized Density × 100,000, spot 149 PUS1 [2, 5]: 1.16
- Average Normalized Density × 100,000, spot 153 MYL2 [2, 5]: 2.37
- Average Normalized Density × 100,000, spot 177 AIM [2, 5]: 2.77
- Average Normalized Density × 100,000, spot 181 SERPINA3L [2, 5]: 7.53
- Average Normalized Density × 100,000, spot 184, 257, 328 CFH [2, 5]: 6.15
- Average Normalized Density × 100,000, spot 207, 555 CCHL1A1 [2, 5]: 11.32
- Average Normalized Density × 100,000, spot 215 GPT [2, 5]: 3.23
- Average Normalized Density × 100,000, spot 266 CEP350 [2, 5]: 1.43
- Average Normalized Density × 100,000, spot 299 UMPS [2, 5]: 1.17
- Average Normalized Density × 100,000, spot 315 ITIH4 [2, 5]: 5.19
- Average Normalized Density × 100,000, spot 334 ZNF689 [2, 5]: 1.05
- Average Normalized Density × 100,000, spot 341 Nmag 2782 [2, 5]: 1.44
- Average Normalized Density × 100,000, spot 355, 359 PLG [2, 5]: 3.29
- Average Normalized Density × 100,000, spot 382, 385, 378, 572, 578, 595 CFB [2, 5]: 23.45
- Average Normalized Density × 100,000, spot 389 GSN [2, 5]: 44.17
- Average Normalized Density × 100,000, spot 430 SCD2 [2, 5]: 13.65
- Average Normalized Density × 100,000, spot 434, 678 COG1 [2, 5]: 43.20
- Average Normalized Density × 100,000, spot 439 C4BPA [2, 5]: 1.36
- Average Normalized Density × 100,000, spot 452 AFM [2, 5]: 59.65
- Average Normalized Density × 100,000, spot 464 IGH-6 [2, 5]: 4.66
- Average Normalized Density × 100,000, spot 479 IGHM [2, 5]: 8.65
- Average Normalized Density × 100,000, spot 493 ZFP637 [2, 5]: 17.41
- Average Normalized Density × 100,000, spot 515 CESIC/ES2 [2, 5]: 24.22
- Average Normalized Density × 100,000, spot 524 ERCC4 [2, 5]: 68.54
- Average Normalized Density × 100,000, spot 551, 587, 908 C3 [2, 5]: 32.88
- Average Normalized Density × 100,000, spot 559 HPX [2, 5]: 17.91
- Average Normalized Density × 100,000, spot 571 GC [2, 5]: 3.75
- Average Normalized Density × 100,000, spot 576, 620 Act-248 [2, 5]: 2.38
- Average Normalized Density × 100,000, spot 586, 614 SERPINC1 [2, 5]: 132.20
- Average Normalized Density × 100,000, spot 592 DNASE1L1 [2, 5]: 11.70
- Average Normalized Density × 100,000, spot 604 APOH [2, 5]: 67.12
- Average Normalized Density × 100,000, spot 606 GC [2, 5]: 11.27
- Average Normalized Density × 100,000, spot 627 MAPI [2, 5]: 44.92
- Average Normalized Density × 100,000, spot 638 LOC501738 [2, 5]: 4.69
- Average Normalized Density × 100,000, spot 649 SYNE2 [2, 5]: 26.48
- Average Normalized Density × 100,000, spot 651 DSTN [2, 5]: 37.12
- Average Normalized Density × 100,000, spot 655 DLGAP2 [2, 5]: 151.30
- Average Normalized Density × 100,000, spot 672 SERPINF [2, 5]: 23.29
- Average Normalized Density × 100,000, spot 676 rCG33447 [2, 5]: 24.67
- Average Normalized Density × 100,000, spot 691 APOA4 [2, 5]: 65.41
- Average Normalized Density × 100,000, spot 715 SERPINA1 [2, 5]: 30.96
- Average Normalized Density × 100,000, spot 724 ALB [2, 5]: 2.19
- Average Normalized Density × 100,000, spot 728 SYMPK [2, 5]: 2.21
- Average Normalized Density × 100,000, spot 733 DECR2 [2, 5]: 1.67
- Average Normalized Density × 100,000, spot 740 PRPH [2, 5]: 4.02
- Average Normalized Density × 100,000, spot 745 PFKFB1 [2, 5]: 2.30
- Average Normalized Density × 100,000, spot 749 MY05B [2, 5]: 2.46
- Average Normalized Density × 100,000, spot 766 SCG2 [2, 5]: 3.79
- Average Normalized Density × 100,000, spot 779, 909 VIM [2, 5]: 3.08
- Average Normalized Density × 100,000, spot 796 Hypothetical p [2, 5]: 5.11
- Average Normalized Density × 100,000, spot 814 RBM15B [2, 5]: 3.61
- Average Normalized Density × 100,000, spot 817 BRPF1 [2, 5]: 25.15
- Average Normalized Density × 100,000, spot 820, 1081 BFAR [2, 5]: 13.38
- Average Normalized Density × 100,000, spot 827 GNAT [2, 5]: 10.78
- Average Normalized Density × 100,000, spot 832 PSMB [2, 5]: 3.47
- Average Normalized Density × 100,000, spot 860 KRT10 [2, 5]: 2.64
- Average Normalized Density × 100,000, spot 867 RAI14 [2, 5]: 2.41
- Average Normalized Density × 100,000, spot 881 CHD4 [2, 5]: 28.89
- Average Normalized Density × 100,000, spot 897 MY05A [2, 5]: 11.65
- Average Normalized Density × 100,000, spot 900 rCG25416 [2, 5]: 7.06
- Average Normalized Density × 100,000, spot 906 APOE [2, 5]: 74.42
- Average Normalized Density × 100,000, spot 966 CMRF-35-like molecule-7 [2, 5]: 49.99
- Average Normalized Density × 100,000, spot 979 rCG25357 [2, 5]: 31.72
- Average Normalized Density × 100,000, spot 992 APOA1 [2, 5]: 38.11
- protein spots observed (2D-GE) [2, 5]: 2486
- differentially expressed proteins identified in chagasic plasma of treated rats ([2]; share of differentially expressed protein spots, FIG. 7B): 17%
- Average Normalized Density × 100,000, spot 106 CDK5RAP2 [3]: 2.21
- protein carbonylation ([4]; chronic chagasic plasma): not effective in preventing protein carbonylation
- carbonylated protein spots ([4]; chronically infected rats (RCP, RCB, RCPB), plasma): 31
